We go through 5 substances from patent publication US20070224200A1, “Gm3 Synthase as a Therapeutic Target in Microvascular Complications of Diabetes” (priority 2004, published 2007).

Series [1] relates to pericytes (BRP). In words: AGE effect on proliferation of pericytes (cell count, total proteins). The conditions noted are these: 3 μM AGE, 7 days. Type of series: cell-based, bovine. The text has this: Bovine retinal pericytes (BRP) were isolated from bovine retinal micro-vessels as described previously (Lecomte et al., 1996). Briefly, the retinas were obtained by dissection under sterile conditions from enucleated bovine eyes obtained from a local abattoir. After the contaminating pigmented epithelial cells of the retina had been removed, the retinas (2 per culture dish) were sliced into small pieces and homogenised in a Dounce homogeniser in a Hanks balanced saline solution (Ca^2+/Mg^2+-free oxygenated HBSS supplemented with Hepes 10 mM, pH 7.4, antibiotics 1%, bovine serum albumin (BSA, Sigma, Saint-Quentin Fallavier, France) 0.5%). […] The BRP cultures were 100% pure, as characterised by their polygonal irregular morphology with pseudopodia and their growth into non-apposed cells, and as evaluated by positive labelling for both α1-actin and a specific glycolipid antigen (3G5 antibody) and by negative labelling for the von Willebrand factor expressed in the endothelial cells (Lecomte et al., 1996). […]
(§1) At the end of the treatment, the cells were harvested with trypsin and the cell residues were washed twice with a phosphate buffered saline solution (iced PBS) (Sigma). For each sample, one aliquot of cells was counted using a haemocytometer in order to determine the number of cells. […]

Series [2] has as its system renal mesangial cells (RMC). In words: AGE effect on proliferation of renal mesangial cells (cell count, total proteins). Type of series: cell-based, rat. The conditions noted are these: 3 μM AGE, 4 days.
Source text: Rat renal mesangial cells (RMC) were obtained from purified glomeruli of young male Wistar rats (Charles River, l'Arbresle, France). Briefly, cortex fragments were isolated from rat kidneys freshly removed under sterile conditions. Small pieces were mechanically forced through a 230 μm mesh with HBSS buffer. The glomeruli, passed through this mesh, were then forced through a 73.7 μm mesh. Finally, they were placed on a 70 μm mesh and placed in 6 cm dishes covered with fibronectin (4 dishes for 2 renal glomeruli) in DMEM supplemented with 20% of foetal bovine serum, 1% of glutamine and 1% of penicillin/streptomycin. After the attachment period, the excrescence of RMC from glomeruli occurred after three weeks and the cells were then cultivated to the fifth passage in order to remove the residual epithelial and endothelial cells. The RMC are characterised by morphological criteria (star shape, wick shape when they are confluent) and by positive labelling with vimentin, smooth muscle α-actin and Thy-1 antigen. […]
as §1

Series [3] has as its system gangliosides in pericytes (BRP). Briefly: Ganglioside profile in pericytes treated with AGE (HPTLC). Type of series: cell-based, bovine. The conditions noted are these: 3 μM AGE. Here is the method:
(§2) The AGE and the BSA control (final concentration of 3 μM) were added to the culture medium 24 hours after inoculation. Each cell type was treated for one passage (about 7 days for the BRP and 4 days for the RMC). The culture medium was replaced with a fresh medium every two days.
(§3) For metabolic labelling of the gangliosides, 0.2 μCi/ml or 1 μCi/ml of [^14C(U)]-D-galactose (329.5 mCi/mmol) (PerkinElmer Life Sciences, Boston, Mass.) was added to the culture medium overnight for the labelling experiments with a high specific activity (GM2 and GM1 measuring experiment). The cells (5-8×10^5 pericytes or 12-20×10^5 mesangial cells) were then harvested by trypsinisation and washed three times in PBS. The gangliosides were extracted from the cell residues by the method described by Bouchon et al. (Bouchon et al., 1990), modified by Natalizio et al. (Natalizio et al., 2002). Briefly, the cell residues were dispersed in 2 ml of chloroform (C)/methanol (M) (1:1, v/v), mixed vigorously and extracted overnight at 4° C. After centrifugation, the residues were extracted twice with 2 ml of the same solvent. The pooled extracts of total lipids were dried by evaporation and separated with the aid of a 1 mM C/M/PBS solution (10:10:7, v/v/v). The upper phases, containing the gangliosides, were then desalted on a C18 silica gel column (Waters Corporation, Milford, Mass.) and analysed by HPTLC (Merck, Darnstadt, Germany). The plates were developed in 0.2% C/M/CaCl2 (55:45:10, v/v/v). The gangliosides were visualised by autoradiography using a phosphorus screen and a Storm 820 (Molecular Dynamics, Amersham Pharmacia Biotech, Piscataway, United States) and by labelling with resorcinol (specific stain for gangliosides: resorcinol 0.3% (Sigma), CuSO4 0.03%, HCl 30%) using an Image Master VDS-CL (Amersham Pharmacia Biotech). Quantification was performed using an Image Quant (Molecular Dynamics). As GT1b was absent from the ganglioside profiles of both the BRP and the RMC, it was added to the samples as an internal standard prior to lipid extraction.

Series [4] deals with gangliosides in mesangial cells (RMC). Briefly: Ganglioside profile in mesangial cells treated with AGE (HPTLC). The format is cell-based, rat. The conditions noted are these: 3 μM AGE, resorcinol staining. Here is the method:
as §2, §3

Series [5] relates to GM3 synthase. Briefly: GM3 synthase activity in homogenates of pericytes treated with AGE. Type of series: cell-based, bovine. The conditions noted are these: 3 μM AGE, 7 days, vs BSA control. On the procedure:
as §2
(§4) At the end of the treatment, the cells were washed with PBS, incubated for 20 minutes at 4° C. in 50 μl of lysis buffer (20 mM sodium cacodylate, pH 6.6 (Sigma), 0.2% of Triton X-100, 1 mM EDTA, 10 μl/ml of protease inhibitors, Calbiochem, La Jolla, Calif., United States) and then collected by scraping. Four dishes of BRP (about 2-3×10^6 cells) and three dishes of RMC (about 3-6×10^6 cells) were pooled. The cell lysates were centrifuged at 10,000 g for 5 minutes and the proteins in the supernatants were used to measure the GM3 synthase activity. The glomerular residues were mechanically homogenised with a syringe in 25 mM Hepes containing 1 mM EDTA and 10 μl/ml of protease inhibitors. The homogenates were then centrifuged at 1000 g for 2 minutes and the postnuclear supernatant was used to measure the GM3 synthase activity. Equivalent amounts of proteins for each sample (about 500 μg for the cells and 100 μg for the glomeruli) were used to perform the test. […]

In series [6] the test system is GM3 synthase. In words: GM3 synthase activity in homogenates of mesangial cells treated with AGE. The conditions noted are these: 3 μM AGE, 4 days, vs BSA control. The format is cell-based, rat. On the procedure:
as §2, §4

Series [7] concerns GM3 synthase. Briefly: GM3 synthase activity in RMC transfected with GM3 synthase siRNA. Type of series: cell-based, rat. Here is the method: as §4, with “inhibitors.” for “inhibitors. The homogenates were then centrifuged at 1000 g for 2 minutes and the postnuclear supernatant was used to measure the GM3 synthase activity. Equivalent amounts of proteins for each sample (about 500 μg for the cells and 100 μg for the glomeruli) were used to perform the test.”
To block the GM3 synthase activity, RMC were cultivated in 6-well culture plates up to 30% confluence and then transfected with an interfering RNA (siRNA) specific for GM3 synthase, which was designed against a rat cDNA sequence (Ambion, Huntingdon, UK) using an Oligofectamine reagent (Invitrogen Corporation). […] After 72 h of transfection, the GM3 synthase activity was measured on homogenates of transfected cells. The proliferation was then evaluated on the cells transfected with the siRNA. […] The cells were then washed twice with PBS and lysed in a Ripa lysis buffer and the proteins were measured in order to evaluate the cell proliferation.

The test system of another series is RMC. Briefly: Proliferation of siRNA-transfected RMC treated with AGE. The format is cell-based, rat. The conditions noted are these: 400 nM siRNA, then 3 μM AGE 3 days, total proteins. Here is the method: To block the GM3 synthase activity, RMC were cultivated in 6-well culture plates up to 30% confluence and then transfected with an interfering RNA (siRNA) specific for GM3 synthase, which was designed against a rat cDNA sequence (Ambion, Huntingdon, UK) using an Oligofectamine reagent (Invitrogen Corporation). The GM3 synthase antisense sequence used was GGGUUAUUCUGAACAUGUUtt (SEQ ID No: 5). In preliminary experiments, a dose-response study was carried out by transfecting the cells with increasing concentrations of siRNA (0-800 nM). After 72 h of transfection, the GM3 synthase activity was measured on homogenates of transfected cells. The proliferation was then evaluated on the cells transfected with the siRNA. For this purpose, 24 hours after transfection with 400 nM siRNA, the cells were treated with 3 μM BSA control or AGE (3 days). The cells were then washed twice with PBS and lysed in a Ripa lysis buffer and the proteins were measured in order to evaluate the cell proliferation.

For series [8], the system named is pericytes (BRP). In words: Treatment with exogenous gangliosides, proliferation of pericytes. To be noted: 50 μM, 7 days, total proteins. Type of series: cell-based, bovine. On the procedure: (§5) To evaluate the effect of exogenous gangliosides on the proliferation of BRP and RMC, the cells were cultivated in 96-well plates. Exogenous glycolipids GM3, GM2, GM1 and GD1a, glucosylceramide and lactosylceramide (Matreya) were added to the complete culture medium in a final concentration of 50 μM in the form of complexes with BSA in a 1:1 ratio in DMEM/10 mM Hepes, pH 7.4. At the end of the treatment, the cells were washed twice with PBS and lysed for 30 minutes at 37° C. in 50 μl of a Ripa lysis buffer (PBS 10 mM, NP40 1% (Pierce, Perbio Science, Brebières, France), sodium deoxycholate 0.5%, SDS 0.1%, protease inhibitors 10 μl/ml). As the number of cells in our experiments was correlated with the total protein concentrations (cf. FIG. 1), the total proteins were measured using the BCA protein test (Pierce) in order to evaluate the cell proliferation.

A further series has as its system mesangial cells (RMC). In words: Treatment with exogenous gangliosides, proliferation of mesangial cells. Type of series: cell-based, rat. The conditions noted are these: 50 μM, 4 days, total proteins. Here is the method: as §5
The mark [9] stands for this setting: pericytes, resorcinol staining, vs BSA control.

In the case of “AGE: prepared by incubating bovine serum albumin with 100 mM methylglyoxal at 37° C. for 50 hours”, the “reduction of the number of pericytes” value in the series with pericytes (BRP) [1] (cell count, vs BSA control) is 33%. Moreover, the total proteins entry in the series on pericytes (BRP) [1] (pericytes) is “decreased in correlation with the number of cells”. Moreover, the “reduction of the number of mesangial cells” value in series [2] (cell count, vs BSA control) was found to be 40%. In series [2] (mesangial cells), the total proteins entry is recorded as “decreased in correlation with the number of cells”. Further, the “increase in GM2” value in [3] (BRP, [14C]-D-galactose labelling, autoradiography) is reported as 55%. In [3] (setting [9]), the “increase in series a ganglioside GM1” value is reported as “about 40%”, the “increase in series a ganglioside GM3” value is “about 40%” and the “reduction of series b ganglioside GD3” value is listed as 24%. Moreover, the GD1a levels result in series [4] is reported as “not affected”. Besides, in [4] (vs BSA control), the “increase in GM3” value is 33% and the “reduction of GD3” value is 30%. Besides, the “increase of GM3 synthase activity (factor)” value with GM3 synthase [5] is listed as “about 1.8”. In addition, the “increase of GM3 synthase activity (factor)” value in the series on GM3 synthase [6] was “about 1.5”.
With “GGGUUAUUCUGAACAUGUUtt (guide GGGUUAUUCUGAACAUGUUTT; chemistry not given here) [GM3 synthase siRNA]”, the “inhibition of GM3 synthase activity” value with GM3 synthase [7] (RMC transfected with siRNA) worked out at 50%. Also, the “inhibition of GM3 synthase activity (in words)” value in the series with GM3 synthase [7] (RMC, preliminary experiments, siRNA 0-800 nM, 72 h) was “effectively inhibited”. Also, the “effects of AGE on the proliferation of the RMC” value with RMC is “partially inhibited”.
Take glucosylceramide: the “effect on proliferation of pericytes (in words)” value (“effect … of pericytes (in words)” for short) in the series on pericytes (BRP) [8] is “no effect”. The “effect on proliferation of mesangial cells (in words)” value in the series with mesangial cells (RMC) is given as “no effect”.
On to lactosylceramide, for which, in the series with pericytes (BRP) [8], the “effect … of pericytes (in words)” value was “no effect”. The “effect on proliferation of mesangial cells (in words)” value in the series with mesangial cells (RMC) is on record as “no effect”.
Take “α-N-acetyl-neuraminyl-2,3-β-D-galactosyl-1,4-β-D-glucosylceramide [GM3]”: the “effect … of pericytes (in words)” value with pericytes (BRP) [8] is on record as “weakly inhibited”. In the series on mesangial cells (RMC), the “effect on proliferation of mesangial cells (in words)” value is on record as “no significant effect”.
